Experimental data reported in patent publication US8017786B2, “Substituted β-phenyl-α-hydroxy-propanoic acid, synthesis method and use thereof” (Northwest University, priority 2006, dated 2011).

Key:
Type in all cases: in vivo, rat
[1] = tested on: rats with middle cerebral artery occlusion; test: Cerebral microcirculatory blood flow in rats with middle cerebral artery occlusion
Description: 60 SD rats with a body weight of 220±20 g were randomly divided into normal control group, model control group, salvianic acid injection group (ip. 1 mL/kg), and group of bornyl β-(3,4-dihydroxylphenyl)-α-hydroxylpropionate ester at a small, middle and large dose respectively (ip. 5, 15, and 35 mg/kg). The rats of normal group and model group were administered with equal-volume of physiologic saline by ip. The rats were anesthetized by intraperitoneal injection of 1% pentobarbital sodium at an amount of 40 mg/kg, then placed at supine position, head fixed, and cut skin along cervical middle line. Trachea cannula, was inserted into the rats and they were allowed to spontaneous respire. Right common jugular vein and common carotid artery were isolated and a suture was introduced for later use. Animals were fixed on a rat stereotaxic apparatus, a cranial window with a size of 6×8 mm was opened at the right temple with a dental drill, after hemostasis, cerebral dura mater was cut open with scissors to expose cerebral pia mater. The window was covered and sealed with glass and dental cement, and the laser probe of a laser-doppler microcirculatory blood flow meter was fixed on the cranial window. Then the animals were fixed at lateral position, the right common carotid artery was lifted, ligated at the proximal part and carefully cut with scissors, a nylon suture having a diameter of about 0.3 mm was introduced into the artery. The distance between the artery cut and the paropia of the rats was marked before the suture was introduced. […] When the suture arrived at middle cerebral artery, an abrupt decrease of the microcirculatory blood flow would be observed. After the observation of a decrease in the microcirculatory blood flow, the suture was further penetrated by about 1 mm, and the distal end of the cut and the suture in the artery were ligated securely. Spare suture was cut-off. After the end of the test, it was checked whether the nylon suture blocked the initiation site of the middle cerebral artery, and the data of any animal whose artery was not blocked were cancelled. The animals of the control group were not treated. After the cranial window was prepared, the probe of J I2200 type laser-doppler microcirculatory blood flow meter was fixed at the cranial window, and the probe was maintained without displacement and rotation during the whole test. The microcirculatory blood flows before ligation and 5, 15, 30, 45 and 60 min after ligation were recorded, and the data of the animals in the drug-treatment groups were recorded at the same time points. The mean microcirculatory blood flow observed within 1 min at each time point was designated as the microcirculatory blood flow of the respective time point.

[2] = tested on: lactate dehydrogenase (LDH); test: Serum LDH activity in rats with myocardial ischemia; conditions: for LDH: serum, 24 h after ligation
Description: (§1) At 0.5 h after the rats of these groups were administered intragastrically, the standard II lead electrocardiogram (before modeling) was recorded, and the height of ST-T segment was measured. The rats of sham operation group were then subjected to coronary artery braid without ligation, and the rats of other groups were subjected to coronary artery ligation in accordance with the following method to establish cute myocardial ischemia models. The rats were subjected to etherization, fixed at supine position, and their normal electrocardiograms (before modeling) were recorded. The skin of left thorax was incised under aseptic conditions, the 4th intercostal muscles were isolated in blunt way, the heart was extruded by light pressure to the right thorax, the left anterior descending coronary artery was ligated at a position 2˜3 mm departing from the left coronary artery origin and between the pulmonary conus and the left auricle of heart, then the heart was sent back to thorax cavity immediately and sutured the incision. Penicillin was smeared topically for the prevention of infections. After operation, the electrocardiogram of postischemia was recorded immediately (at 0 min after modeling), and the height of ST-T segment was measured.

[3] = tested on: creatine kinase (CK); test: Serum CK activity in rats with myocardial ischemia; conditions: for CK: serum, 24 h after ligation
Description: as §1

[4] = tested on: rats with acute myocardial ischemia; test: ST-T segment of ECG in rats with myocardial ischemia
Description: as §1

[5] = 10 mg/kg intragastric, 0 min after modeling
[6] = 10 mg/kg intragastric, 24 h after modeling
[7] = 20 mg/kg intragastric, 0 min after modeling
[8] = 20 mg/kg intragastric, 24 h after modeling
[9] = 40 mg/kg intragastric, 0 min after modeling
[10] = 40 mg/kg intragastric, 24 h after modeling

## CC1(C)C2CCC1(C)C(OC(=O)C(O)Cc1ccc(O)c(O)c1)C2 (stereo not drawn) [bornyl salvianate ester, bornyl β-(3,4-dihydroxylphenyl)-α-hydroxylpropionate ester]
[1]; 5 mg/kg ip, 5 min after ligation
  Microcirculatory blood flow: 11.4 ± 5.4 mL
[1]; 5 mg/kg ip, 15 min after ligation
  Microcirculatory blood flow: 12.4 ± 4.6 mL
[1]; 5 mg/kg ip, 30 min after ligation
  Microcirculatory blood flow: 12.9 ± 5.1 mL
[1]; 5 mg/kg ip, 45 min after ligation
  Microcirculatory blood flow: 16.1 ± 4.1 mL
[1]; 5 mg/kg ip, 60 min after ligation
  Microcirculatory blood flow: 16.0 ± 6.9 mL
[1]; 15 mg/kg ip, 5 min after ligation
  Microcirculatory blood flow: 9.4 ± 3.7 mL
[1]; 15 mg/kg ip, 15 min after ligation
  Microcirculatory blood flow: 12.8 ± 5.6 mL
[1]; 15 mg/kg ip, 30 min after ligation
  Microcirculatory blood flow: 20.7 ± 3.2 mL
[1]; 15 mg/kg ip, 45 min after ligation
  Microcirculatory blood flow: 25.0 ± 5.2 mL
[1]; 15 mg/kg ip, 60 min after ligation
  Microcirculatory blood flow: 24.4 ± 4.8 mL
[1]; 15 mg/kg, 30 minutes after the administration
  cerebral microcirculatory blood flow (in words): increased slightly
[1]; 35 mg/kg ip, 5 min after ligation
  Microcirculatory blood flow: 10.8 ± 2.7 mL
[1]; 35 mg/kg ip, 15 min after ligation
  Microcirculatory blood flow: 19.4 ± 5.1 mL
[1]; 35 mg/kg ip, 30 min after ligation
  Microcirculatory blood flow: 32.7 ± 6.2 mL
[1]; 35 mg/kg ip, 45 min after ligation
  Microcirculatory blood flow: 35.4 ± 8.2 mL
[1]; 35 mg/kg ip, 60 min after ligation
  Microcirculatory blood flow: 35.2 ± 5.8 mL
[1]; 35 mg/kg, 15 minutes after the administration
  cerebral microcirculatory blood flow (in words): increased slightly
[2]; 10 mg/kg intragastric
  LDH: 1663.7 ± 374.43 U/L
[2]; 20 mg/kg intragastric
  LDH: 2022.7 ± 202.63 U/L
[2]; 40 mg/kg intragastric
  LDH: 1712.5 ± 209.1 U/L
[2]; all dose groups, 24 h later
  activity of lactate dehydrogenase (LDH) (in words): decreased
[3]; 10 mg/kg intragastric
  CK: 1214.2 ± 160.2 U/L
[3]; 20 mg/kg intragastric
  CK: 894.5 ± 176.3 U/L
[3]; 40 mg/kg intragastric
  CK: 778.0 ± 177.1 U/L
[3]; all dose groups, 24 h later
  activity of creatine kinase (CK) (in words): decreased
[4]; [5]
  Elevation of ST-T segment: 0.24 ± 0.24 mV
  Elevation of ST-T segment, Change rate: 95.00 ± 78.34%
[4]; [6]
  Elevation of ST-T segment: 0.17 ± 0.09 mV
  Elevation of ST-T segment, Change rate: 49.00 ± 36.27%
[4]; 10 mg/kg intragastric, before modeling
  Elevation of ST-T segment: 0.21 ± 0.06 mV
[4]; [7]
  Elevation of ST-T segment: 0.13 ± 0.16 mV
  Elevation of ST-T segment, Change rate: 91.61 ± 116.85%
[4]; [8]
  Elevation of ST-T segment: 0.11 ± 0.10 mV
  Elevation of ST-T segment, Change rate: 60.77 ± 39.69%
[4]; 20 mg/kg intragastric, before modeling
  Elevation of ST-T segment: 0.17 ± 0.07 mV
[4]; [9]
  Elevation of ST-T segment: 0.36 ± 0.17 mV
  Elevation of ST-T segment, Change rate: 103.87 ± 148.26%
[4]; [10]
  Elevation of ST-T segment: 0.18 ± 0.07 mV
  Elevation of ST-T segment, Change rate: 29.01 ± 18.99 %
[4]; 40 mg/kg intragastric, before modeling
  Elevation of ST-T segment: 0.21 ± 0.06 mV
